In patent US9809640B2, “ApoE peptide dimers and uses thereof” (priority 2010, dated 2017):
Positions of bridges follow the written chain, without caps; N, C: chain ends. Chains are numbered I, II in the order given.

Experiments:
BV2 microglia cells = test: LPS-induced nitric oxide production in BV2 microglia cells; assay type: cell-based
Procedure: FIG. 1. COG 112 inhibits LPS-induced production of inflammatory cytokines in BV2 microglia cells. Inhibition curves for COG112 in the production of NO (green squares), TNFα (red diamonds), and IL-6 (blue triangles) by BV2 microglia. Compounds were added to the final concentrations indicated on the graph along with 100 ng/mL of LPS. After 24 hours the media was removed and assayed by two-site ELISA (BioSource) and quantitated relative to a standard curve on the same plate.
FIG. 3. NO Inhibition curve for COG449. BV2 microglia were treated with COG449 at the final concentrations indicated on the graph, along with 100 ng/mL of LPS. After 24 hours the media was removed and assayed by two-site ELISA (BioSource) and quantitated relative to a standard curve on the same plate.
We also evaluated the various peptides for efficacy in suppressing nitric oxide production induced by LPS stimulation of BV2 microglia cells as a measure of anti-inflammatory activity as well as the maximum dose tolerated in mice (Table I and FIG. 6A). For the LPS assay, EC50 is the concentration of compound that caused a 50% suppression of nitric oxide release from BV2 cells following LPS stimulation. For mouse toxicity, MTD is the maximum dose of the compound that can be given by intravenous injection without causing deaths after 24 hrs. […] Coupling the ApoE domain to a protein transduction domain further enhanced the potency of the dimers.
Low passage BV2 microglial cell cultures are maintained in 10% HI (Heat Inactivated) FBS DMEM media (supplemented with MEM NEAA (Non-Essential Amino Acids), sodium pyruvate and Pen-Strep) and continuously cultured until needed. To determine the IC50 values for NO production, peptides are added to BV2 cultures in 1% HI FBS DMEM media (supplemented with MEM NEAA and sodium pyruvate) at a range of final assay concentrations from 1.0 μM in 2 fold dilutions to 7.8 nM followed immediately by addition of LPS (100 ng/mL final concentration) as previously described (Laskowitz et al. (2001) Exp Neurol, Vol. 167(1): 74-85). After incubating for 18±1 hours, conditioned media is removed for analysis of nitrite (the stable oxidation product of released nitric oxide) by the Griess colorimetric assay (Promega). Remaining cells are assayed for viability in an MTT assay (Promega) and the nitrite assay values are normalized for each concentration using the percent viability of cells in the MTT assay. […] Typically, the absence of LPS exposure to BV2 cells results in levels below the limit of detection in our assays. Similarly, addition of any of the peptides up to 25 μM without LPS results in undetectable NO levels.

B-CLL cells = test: Cytotoxicity on patient-derived B-CLL cells (MTS assay)
From the text: FIG. 5A: Dose response curves for COG449 cytotoxicity on CLL cells from 4 leukemia patients. Human CLL cells were isolated from blood samples and assayed for COG449 cytotoxicity. […] FIG. 5B: Dose response curves for COG445 on CLL cells from 7 patients or normal B-cells from 5 patients. Human CLL cells and PBMC were isolated and assayed for cytotoxicity of COG445.
Blood from CLL patients was collected and CD5+/CD19+ CLL cells were isolated using the RosetteSep™ Human B-Cell Enrichment Cocktail, according to the manufacturer's instructions, and treated with COG compounds. Compounds were applied to B-CLL cells (2.5×10^5 cells/well in a 96 well plate), after which the cells were treated for 72 hours.
Normal B-cells from volunteers and B-CLL cells from patients are isolated using the RosetteSep™ Human B Cell Enrichment Cocktail according to the manufacturer's instructions. This method depletes whole blood of T cells, monocytes, and NK cells using a proprietary antibody cocktail that cross-links unwanted cells in human whole blood to multiple red blood cells (RBCs) forming immunorosettes. This increases the density of the unwanted (rosetted) cells, such that they pellet along with the free RBCs when centrifuged over a buoyant density medium such as Ficoll-Paque®. This leaves the highly enriched B-cell or B-CLL cells at the interface between Ficoll and the plasma. The antibodies in the cocktail contain […] and anti-CD16 antibodies to remove T cells, monocytes, and NK cells, respectively. The purity of these B-cell and B-CLL preparations is then determined by flow cytometry.
For cytotoxicity assays, 3×10^6 CLL cells/well are cultured in 24 well tissue culture plates in 1.5 mL of Hybridoma SFM™ (Gibco, Long Island, N.Y.) as described by Levesque et al. (2001, 2003). All cultures are incubated at 37° C., 5% CO2 in air.

[1] = Cytotoxicity on normal B-cells from volunteers; assay type: cell-based, human; conditions: human, normal B-cells from volunteers
From the text: Normal B-cells from volunteers and B-CLL cells from patients are isolated using the RosetteSep™ Human B Cell Enrichment Cocktail according to the manufacturer's instructions. This method depletes whole blood of T cells, monocytes, and NK cells using a proprietary antibody cocktail that cross-links unwanted cells in human whole blood to multiple red blood cells (RBCs) forming immunorosettes. This increases the density of the unwanted (rosetted) cells, such that they pellet along with the free RBCs when centrifuged over a buoyant density medium such as Ficoll-Paque®. This leaves the highly enriched B-cell or B-CLL cells at the interface between Ficoll and the plasma. The antibodies in the cocktail contain anti-CD14, anti-CD2 and anti-CD16 antibodies to remove T cells, monocytes, and NK cells, respectively. The purity of these B-cell and B-CLL preparations is then determined by flow cytometry. Preparations typically average less than 2% CD3+ T-cells and less than 0.5% CD14+ monocytes. In the case of B-CLL cell isolation, we routinely obtain preparations that contain less than 1.5% normal CD19+/CD5− B-cells using this method.

normal B-cells = test: Cytotoxicity on normal B-cells from volunteers; assay type: cell-based, human
c-myc = test: Total c-myc protein levels, Western blot; assay type: cell-based
From the text: (§1) FIG. 12A: Total PP2A activity immunoprecipitated from MDA-MB-231 cells treated with EGF and increasing concentrations of COG445. FIG. 12B: Western blot and densitometry analysis of total c-myc protein levels in U87 cells treated with the indicated concentrations of COG445 in the presence or absence of okadaic acid. FIG. 12C: Immunoprecipitation of the catalytic subunit of PP2A from MDA-MB-231 cells exposed to EGF and two different concentrations of COG445. The blot is probed for I2PP2A (SET) and PP2A catalytic subunit.
To further characterize the effect of COG445 on PP2A activity, MB231 cells were treated as above and the phosphatase activity of immunoprecipitated PP2A was measured. EGF stimulation caused a significant decrease in total PP2A activity compared to untreated serum starved cells (FIG. 12A). […] To further explore the extent of PP2A activation in response to COG445, total c-myc protein levels were determined by western blot analysis. C-myc is a substrate for PP2A and upon dephosphorylation is metabolized by ubiquitination and proteasomal degradation. In both U87 (FIG. 12B) and MB231 (data not shown) cell lines, c-myc levels decreased after a two-hour exposure to COG445 in a dose-dependent manner, reaching statistical significance at 1000 nM.

[2] = target: recombinant human PP2A catalytic subunit (Homo sapiens, UniProt P67775); test: Recombinant human PP2A catalytic subunit activity; assay type: biochemical; conditions: up to 10 μM
Procedure: (§2) To examine the mechanism of COG445 on PP2A activity, recombinant human PP2A catalytic subunit was incubated with COG445 and activity was measured. […] To further explore the changes of PP2A protein complexes, co-immunoprecipitation experiments were performed on MB231 cells.

[3] = target: T1, I2PP2A (SET) / PP2A catalytic subunit (Homo sapiens, UniProt Q01105); test: Co-immunoprecipitation of I2PP2A (SET) with PP2A catalytic subunit in MB231 cells; assay type: cell-based; conditions: 0.1 or 1 μM pre-treatment
T1 construct: endogenous in cells; host or cells: MDA-MB-231
From the text: as §1, §2

recombinant human PP2A catalytic subunit, sequence (P67775 whole entry): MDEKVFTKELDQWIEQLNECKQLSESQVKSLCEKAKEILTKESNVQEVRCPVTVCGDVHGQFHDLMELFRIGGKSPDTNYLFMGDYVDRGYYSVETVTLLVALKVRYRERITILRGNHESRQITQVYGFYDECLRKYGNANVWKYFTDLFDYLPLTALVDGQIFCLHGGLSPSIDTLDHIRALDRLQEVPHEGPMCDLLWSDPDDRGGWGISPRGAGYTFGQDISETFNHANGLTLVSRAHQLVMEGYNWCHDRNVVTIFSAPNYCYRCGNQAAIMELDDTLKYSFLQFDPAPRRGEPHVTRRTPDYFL
T1 sequence (Q01105 2-290 limits assumed): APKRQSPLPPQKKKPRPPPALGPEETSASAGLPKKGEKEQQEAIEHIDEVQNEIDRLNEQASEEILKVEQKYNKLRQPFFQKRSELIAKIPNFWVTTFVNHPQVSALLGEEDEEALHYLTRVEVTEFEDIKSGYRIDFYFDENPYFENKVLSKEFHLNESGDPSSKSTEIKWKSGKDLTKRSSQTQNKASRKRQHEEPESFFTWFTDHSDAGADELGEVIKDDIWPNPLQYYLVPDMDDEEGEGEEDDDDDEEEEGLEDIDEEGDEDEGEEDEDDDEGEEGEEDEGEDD

I: Ac-RQIKIWFQNRRMKWKKCLRVRLASHLRKLRKRLL-NH2 / II: Ac-RQIKIWFQNRRMKWKKCLRVRLASHLRKLRKRLL-NH2 (disulfide I:17-II:17) [COG445, COG112-C-C-COG112]
EC50 (BV2 microglia cells; 50% suppression of nitric oxide release from BV2 cells following LPS stimulation): < 1000 nM | IC50 (BV2 microglia cells; BV2 cells, LPS 100 ng/mL, read-out: IC50 for NO production/release): 20 nM | Fold Change (B-CLL cells; CLL EC50 relative to COG056 (rev133) = 1.0): 117.3 | EC50 (B-CLL cells; read-out: ED50 for cytotoxicity of CLL cells, purified disulfide dimer, dimer molecular weight): 110 nM | EC50 at 72 h [1]: > 10000 nM | EC50 normal B-cells relative to CLL cells (normal B-cells): ~200 fold | c-myc levels in the presence of OA (c-myc): unaltered | c-myc levels (c-myc; two-hour exposure, U87 and MB231, significant at 1000 nM): decreased | rate of phosphatase activity [2]: did not have any effect | association of I2PP2A to the catalytic subunit of PP2A [3]: strongly diminished
